# In patent US20030044797A1, “Detection of CYP2D6 polymorphisms” (priority 2000, published 2003):
# Tested on: CYP2D6 enzyme
# Assay: debrisoquine metabolic ratio (MR) phenotyping of study participants, correlated with CYP2D6 5′ flanking region haplotypes
# Assay type: in vivo, human
# Description: The study was performed in accordance with the principles stated in the Declaration of Helsinki as reviewed in Tokyo 1975 and Venice 1983, Hong Kong 1989 and Somerset West 1996. Subjects were preferably not related to each other. Based on questioning, individuals having one of the following were excluded: a medical condition judged to influence liver function or requiring pharmacological treatment; any on-going disease; intake of any drug, except oral contraceptives, during one week prior to the study; breast-feeding or pregnancy. No physical examination was performed. For these experiments, a single oral dose of 10 mg debrisoquine (Declinax, Hoffman-LaRoche) was taken in the evening before bed-time. The bladder was emptied before drug intake. All urine was then collected overnight (about 8 hours) A single blood sample was collected 3 hours after drug intake.
# White blood cells isolated from a blood sample drawn from the brachial vein serve as the source of the genomic DNA for the analyses. The DNA was extracted by guanidine thiocyanate method or QlAamp Blood Kit (QIAGEN, Venlo, The Netherlands). The genes included in the study were amplified by PCR and the DNA sequences were determined by the technology most suitable for the specific fragment. […] Case Report Forms were designed and used for clinical and genetic data collection. Data was entered and stored in a relational database at Gemini Genomics AB, Uppsala. To secure consistency between the Case Report Forms and the database, data was checked either by double data entry or proofreading. After a Clean File was declared the database was protected against changes. By using the program Stat/Transfer™ the database was transferred to SAS data sets. The SAS™ system was used for tabulations and statistical evaluations. Genotypes and haplotypes were correlated against the metabolic ratio.
# This analysis was performed using software based on maximum likelihood methodology and using the EM algorithm of Excoffier et al. (1995), Mol Biol Evol. 12:921-927. […] From the haplotype information two different kinds of variables were created: one variable was formed as a haplotype combination variable (HTYPE). This variable has the value H1/H2 when the subject has haplotypes 1 and 2, etc. Variables H1, H2, H3 and H4 are haplotype annotations that denote the number of copies of that particular haplotype for the subject, e.g., for a subject with haplotype H1/H2 the variables H1, H2, H3 and H4 will be 1, 1, 0 and 0, respectively. Each of these variables can thus take on the values 0, 1 or 2. Only the four most frequent haplotypes were considered when those variables were formed.
structure (smiles),measurement,setting,value
N=C(N)N1CCc2ccccc2C1 [debrisoquine],MR-range (min-max),HTYPE H1/H1,0.03-110
same,"MR (Debr), predicted metabolic ratio","HTYPE H1/H1, 89% (49/55) in MR-range",<0.8
same,MR-range (min-max),HTYPE H1/H2,0.06-1.04
same,"MR (Debr), predicted metabolic ratio","HTYPE H1/H2, 81% (52/64) in MR-range",<0.4
same,MR-range (min-max),HTYPE H1/H3,0.08-2.40
same,"MR (Debr), predicted metabolic ratio","HTYPE H1/H3, 74% (14/19) in MR-range",0.4-2.0
same,MR-range (min-max),HTYPE H1/H4,0.18-143
same,"MR (Debr), predicted metabolic ratio","HTYPE H1/H4, 74% (20/27) in MR-range",0.4-7.0
same,MR-range (min-max),HTYPE H2/H2,0.13-1.44
same,"MR (Debr), predicted metabolic ratio","HTYPE H2/H2, 89% (17/19) in MR-range",<0.8
same,MR-range (min-max),HTYPE H2/H3,0.13-2.29
same,"MR (Debr), predicted metabolic ratio","HTYPE H2/H3, 86% (6/7) in MR-range",0.2-7.0
same,MR-range (min-max),HTYPE H2/H4,0.33-3.70
same,"MR (Debr), predicted metabolic ratio","HTYPE H2/H4, 82% (14/17) in MR-range",0.4-2.0
same,MR-range (min-max),HTYPE H3/H3,0.85-5.17
same,"MR (Debr), predicted metabolic ratio","HTYPE H3/H3, 100% (3/3) in MR-range",0.8-7.0
same,MR-range (min-max),HTYPE H3/H4,1.46-6.54
same,"MR (Debr), predicted metabolic ratio","HTYPE H3/H4, 100% (5/5) in MR-range",0.8-7.0
same,MR-range (min-max),HTYPE H4/H4,26.3-236
same,"MR (Debr), predicted metabolic ratio","HTYPE H4/H4, 100% (16/16) in MR-range",>12.6
same,mr50 (metabolic ratio of the 50th percentile),"haplotype H1/H1, n = 53, single oral dose 10 mg debrisoquine",mr50 = 0.22
same,mr50 (metabolic ratio of the 50th percentile),"haplotype H1/—, n = 108",mr50 = 0.375
same,mr50 (metabolic ratio of the 50th percentile),"haplotype H2/H2, n = 19",mr50 = 0.3
same,mr50 (metabolic ratio of the 50th percentile),"haplotype H2/—, n = 88",mr50 = 0.335
same,mr50 (metabolic ratio of the 50th percentile),"haplotype H3/H3, n = 3",mr50 = 2.08
same,mr50 (metabolic ratio of the 50th percentile),"haplotype H3/—, n = 31",mr50 = 0.64
same,mr50 (metabolic ratio of the 50th percentile),"haplotype H4/H4, n = 16",mr50 = 88
same,mr50 (metabolic ratio of the 50th percentile),"haplotype H4/—, n = 49",mr50 = 0.86
same,mr50 (metabolic ratio of the 50th percentile),"no H1 copy (—/—), n = 71",mr50 = 0.87
same,mr50 (metabolic ratio of the 50th percentile),"no H2 copy (—/—), n = 125",mr50 = 0.56
same,mr50 (metabolic ratio of the 50th percentile),"no H3 copy (—/—), n = 198",mr50 = 0.34
same,mr50 (metabolic ratio of the 50th percentile),"no H4 copy (—/—), n = 167",mr50 = 0.27
